Laboratory results published in patent US11185073B2, “Microbiocidal quinoline (thio)carboxamide derivatives” (SYNGENTA PARTICIPATIONS AG, priority 2017, dated 2021).

Columns and labels:
[1] = test system: Botryotinia fuckeliana (Botrytis cinerea); experiment: Botryotinia fuckeliana (Botrytis cinerea) / liquid culture (gray mould); format: cell-based; conditions: 72 h, growth inhibition photometrically 3-4 days after application, compared to untreated control
[2] = test system: Glomerella lagenarium (Colletotrichum lagenarium); experiment: Glomerella lagenarium (Colletotrichum lagenarium) / liquid culture (anthracnose); format: cell-based; conditions: Colletotrichum orbiculare, growth inhibition photometrically 3-4 days after application, compared to untreated control
Fusarium culmorum [3] = experiment: microbe, parasite or virus in culture; format: cell-based; conditions: 72 h, read-out: control of Fusarium culmorum
Fusarium culmorum [4] = experiment: whole plant or invertebrate; format: in vivo; conditions: in Triticum aestivum, read-out: control of Fusarium culmorum
[5] = test system: Monographella nivalis (Microdochium nivale); experiment: Monographella nivalis (Microdochium nivale) / liquid culture (foot rot cereals); format: cell-based; conditions: 96 h, growth inhibition photometrically 4-5 days after application, compared to untreated control
[6] = test system: Gibberella zeae (Fusarium graminearum); experiment: whole plant or invertebrate; format: in vivo; conditions: in Triticum aestivum, read-out: control of Gibberella zeae
[7] = test system: Magnaporthe grisea (Pyricularia oryzae); experiment: microbe, parasite or virus in culture; format: cell-based; conditions: 72 h, read-out: control of Magnaporthe grisea

C[C@@](COC1CCC1)(CC(F)(F)F)NC(=O)c1cnc2c(F)cccc2c1 [E.013, N-[(1S)-1-(cyclo-butoxymethyl)-3,3,3-trifluoro-1-methyl-propyl]-8-fluoro-quinoline-3-carboxamide]
≥ 80%: inhibition of growth at 20 ppm [1] | inhibition of growth at 20 ppm [2] | inhibition of growth at 20 ppm (Fusarium culmorum [3]) | pest or weed control at 200 ppm (Fusarium culmorum [4]) | inhibition of growth at 20 ppm [5]

CC(C)CC(C)(COC(C)C)NC(=O)c1cnc2c(F)cccc2c1 (stereo not shown) [E.024, 8-fluoro-N-[1-(iso-propoxymethyl)-1,3-dimethyl-butyl]quinoline-3-carboxamide]
≥ 80%: inhibition of growth at 20 ppm [1] | inhibition of growth at 20 ppm [2] | inhibition of growth at 20 ppm (Fusarium culmorum [3]) | pest or weed control at 200 ppm (Fusarium culmorum [4]) | pest or weed control at 200 ppm [6] | inhibition of growth at 20 ppm [7]

CC(COC1CCCCC1)(CC(F)(F)F)NC(=O)c1cnc2c(F)cccc2c1 (stereo in doubt) [E.017, N-[(1S)-1-(cyclo-hexoxymethyl)-3,3,3-trifluoro-1-methyl-propyl]-8-fluoro-quinoline-3-carboxamide]
≥ 80%: pest or weed control at 200 ppm [6]

CC1(CC(C)(COCc2ccccc2)NC(=O)c2cnc3c(F)cccc3c2)CC1 (stereo not shown) [E.018, N-[1-(benzyloxy-methyl)-1-methyl-2-(1-methylcyclo-propyl)ethyl]-8-fluoro-quinoline-3-carboxamide]
≥ 80%: inhibition of growth at 20 ppm [1] | inhibition of growth at 20 ppm (Fusarium culmorum [3]) | inhibition of growth at 20 ppm [5] | inhibition of growth at 20 ppm [7]

Cc1cccc2cc(C(=O)NC(C)(COC3CCC3)CC(F)(F)F)cnc12 (stereo not shown) [E.011]
≥ 80%: inhibition of growth at 20 ppm [1] | inhibition of growth at 20 ppm [2] | inhibition of growth at 20 ppm (Fusarium culmorum [3]) | pest or weed control at 200 ppm (Fusarium culmorum [4]) | inhibition of growth at 20 ppm [5] | inhibition of growth at 20 ppm [7]

CC(COC1(C)CCCCC1)(CC(F)(F)F)NC(=O)c1cnc2c(F)cccc2c1 (stereo not shown) [E.015, 8-fluoro-N-[3,3,3-trifluoro-1-methyl-1-[(1-methylcyclo-hexoxy)methyl]-propyl]quinoline-3-carboxamide]
≥ 80%: inhibition of growth at 20 ppm [1] | inhibition of growth at 20 ppm [2] | inhibition of growth at 20 ppm (Fusarium culmorum [3]) | inhibition of growth at 20 ppm [7]

CCCCCCCCC(C)(COC)NC(=O)c1cnc2c(F)cccc2c1 (stereo not shown) [E.033, 8-fluoro-N-[1-(methoxymethyl)-1-methyl-nonyl]-quinoline-3-carboxamide]
≥ 80%: inhibition of growth at 20 ppm [1] | inhibition of growth at 20 ppm [2] | inhibition of growth at 20 ppm (Fusarium culmorum [3]) | pest or weed control at 200 ppm [6] | inhibition of growth at 20 ppm [5]

CC(C)CC(C)(COC1CCCC1)NC(=O)c1cnc2c(F)cccc2c1 (stereo not shown) [E.031, N-[1-(cyclopentoxy-methyl)-1,3-dimethyl-butyl]-8-fluoro-quinoline-3-carboxamide]
≥ 80%: inhibition of growth at 20 ppm [1] | inhibition of growth at 20 ppm [2] | inhibition of growth at 20 ppm (Fusarium culmorum [3]) | pest or weed control at 200 ppm (Fusarium culmorum [4]) | inhibition of growth at 20 ppm [5] | inhibition of growth at 20 ppm [7]

CC(COC1CCC1)(CC(F)(F)F)NC(=O)c1cnc2c(F)cccc2c1 (stereo not shown) [E.021, N-[1-(cyclobutoxy-methyl)-3,3,3-trifluoro-1-methyl-propyl]-8-fluoro-quinoline-3-carboxamide]
≥ 80%: inhibition of growth at 20 ppm [1] | inhibition of growth at 20 ppm [2] | inhibition of growth at 20 ppm (Fusarium culmorum [3]) | inhibition of growth at 20 ppm [7]

CC(C)CC(C)(COC1CCCCC1)NC(=O)c1cnc2c(F)cccc2c1 (stereo not shown) [E.029, N-[1-(cyclohexoxy-methyl)-1,3-dimethyl-butyl]-8-fluoro-quinoline-3-carboxamide]
≥ 80%: inhibition of growth at 20 ppm [1] | inhibition of growth at 20 ppm [2] | inhibition of growth at 20 ppm (Fusarium culmorum [3]) | pest or weed control at 200 ppm (Fusarium culmorum [4]) | inhibition of growth at 20 ppm [5] | inhibition of growth at 20 ppm [7]

CC(COC1CCC1)(CC(F)(F)F)NC(=O)c1cnc2c(F)cccc2c1 (stereo in doubt) [E.014, N-[(1S)-1-(cyclo-butoxymethyl)-3,3,3-trifluoro-1-methyl-propyl]-8-fluoro-quinoline-3-carboxamide]
≥ 80%: inhibition of growth at 20 ppm [1] | inhibition of growth at 20 ppm [2] | inhibition of growth at 20 ppm (Fusarium culmorum [3]) | pest or weed control at 200 ppm (Fusarium culmorum [4]) | pest or weed control at 200 ppm [6]

CC(C)(C)CC(C)(COCC1CC1)NC(=O)c1cnc2c(F)cccc2c1 (stereo not shown) [E.006, N-[1-(cyclo-propylmethoxy-methyl)-1,3,3-trimethylbutyl]-8-fluoro-quinoline-3-carboxamide]
≥ 80%: inhibition of growth at 20 ppm [1] | inhibition of growth at 20 ppm [2] | inhibition of growth at 20 ppm (Fusarium culmorum [3]) | pest or weed control at 200 ppm (Fusarium culmorum [4]) | inhibition of growth at 20 ppm [5] | inhibition of growth at 20 ppm [7]

CC(C)CC(C)(COc1ccccc1)NC(=O)c1cnc2c(F)cccc2c1 (stereo not shown) [E.028, N-[1,3-dimethyl-1-(phenoxymethyl)-butyl]-8-fluoro-quinoline-3-carboxamide]
≥ 80%: inhibition of growth at 20 ppm [1] | inhibition of growth at 20 ppm [2] | inhibition of growth at 20 ppm (Fusarium culmorum [3]) | pest or weed control at 200 ppm (Fusarium culmorum [4]) | inhibition of growth at 20 ppm [5]

Cc1nc2c(F)cccc2cc1C(=O)NC(C)(COC1CCC1)CC(F)(F)F (stereo not shown) [E.009, N-[1-(cyclo-butoxymethyl)-3,3,3-trifluoro-1-methyl-propyl]-8-fluoro-2-methyl-qiuinoline-3-carboxamide]
≥ 80%: inhibition of growth at 20 ppm [1] | inhibition of growth at 20 ppm [2] | inhibition of growth at 20 ppm (Fusarium culmorum [3]) | inhibition of growth at 20 ppm [7]

CC(COC1(C)CCCC1)(CC(F)(F)F)NC(=O)c1cnc2c(F)cccc2c1 (stereo not shown) [E.010]
≥ 80%: inhibition of growth at 20 ppm [1] | inhibition of growth at 20 ppm [2] | inhibition of growth at 20 ppm (Fusarium culmorum [3]) | pest or weed control at 200 ppm (Fusarium culmorum [4]) | pest or weed control at 200 ppm [6] | inhibition of growth at 20 ppm [5]

CCC(CC)OCC(C)(CC(C)C)NC(=O)c1cnc2c(F)cccc2c1 (stereo not shown) [E.022, N-[1-(1-ethyl-propoxymethyl)-1,3-dimethyl-butyl]-8-fluoro-quinoline-3-carboxamide]
≥ 80%: inhibition of growth at 20 ppm [1] | inhibition of growth at 20 ppm [2] | inhibition of growth at 20 ppm (Fusarium culmorum [3]) | pest or weed control at 200 ppm (Fusarium culmorum [4]) | inhibition of growth at 20 ppm [5] | inhibition of growth at 20 ppm [7]
